Our source for the IC50 values is BindingDB's records for doi:10.1007/s10822-022-00478-x (Roche Innovation Center Basel, F. Hoffmann-La Roche Ltd., 2022).

In the experiment the target is cAMP and cAMP-inhibited cGMP 3',5'-cyclic phosphodiesterase 10A (Homo sapiens, UniProt Q9Y233). The experiment can be described thus: PDE10A assay. In outline:
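Scintillation proximity readout of [3H]cGMP hydrolysis (50 nM final substrate, 15 min) by 2 ng/well human PDE10A after 15 min compound preincubation at RT, pH 7.5 with MgCl2. Four-parameter logistic fit gave IC50, reported as pIC50.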
Compound `Cn1cc(S(C)(=O)=O)c(C(=O)Nc2ccc3cc(-c4ccccc4)nn3c2)n1` [Roche-Dataset for PDE10A, Compound 416] yielded an IC50 of 88 nM.
The figure for `O=C(Nc1ccnc(Cl)c1)c1cn(-c2ccc3ccccc3n2)cn1` [Roche-Dataset for PDE10A, Compound 414] is 302 nM; for `Cn1ncc(C(=O)O)c1C(=O)Nc1ccc2nc(N3CCOCC3)nn2c1` [Roche-Dataset for PDE10A, Compound 1151] it is 1340 nM.
The figure for `Cc1ncc(C)n2nc(CCc3nc(N)nn3C)nc12` [Roche-Dataset for PDE10A, Compound 1150] is 3930 nM; for `O=C(Nc1cc(-c2ccccc2)no1)c1ccc2cc(-c3ccccc3)nn2c1` [Roche-Dataset for PDE10A, Compound 752] it is 4500 nM; for `CNC(=O)c1cc2[nH]c(-c3ccccc3)nc2cc1NC(=O)c1cc(C(C)(C)C)nn1C` [Roche-Dataset for PDE10A, Compound 650] it is 114 nM.
`Cc1nc(-c2ccccc2Cl)n2c3ccc(Cl)cc3c(=O)n(C)c12` [Roche-Dataset for PDE10A, Compound 967]: inhibition was half-maximal at 15 nM (IC50).
Consider `O=C(NCc1ccc(F)c(F)c1)c1nc(C2CC2)cnc1Nc1cncnc1` [Roche-Dataset for PDE10A, Compound 799], for which the IC50 turned out to be 376 nM.
In the case of `Cc1cc(C)n2nc(CCc3cncc(N4CCCC4)n3)nc2n1` [5,7-dimethyl-2-(2-(6-(pyrrolidin-1-yl)pyrazin-2-yl)ethyl)-[1,2,4]triazolo-[1,5-a]pyrimidine], it took 307 nM to reach half-maximal inhibition (IC50).
Turning to `CCc1nc(C)c(C(=O)Nc2cc3nc(-c4ccccc4)[nH]c3cc2C(=O)NCC2(CO)COC2)o1` [Roche-Dataset for PDE10A, Compound 163], it took 7.27 nM to reach half-maximal inhibition (IC50).
As to `Cn1nc(-c2cccc(Cl)n2)cc1NC(=O)c1nc(C2CC2)ccc1Nc1cncnc1` [US8470820, 41], the IC50 worked out at 2.77 nM. Compared with the last compound, the IC50 is about 2.6-fold lower.
For the compound `COc1cccc(-c2noc(CCN3C(=O)c4ccccc4C3=O)n2)c1` [Roche-Dataset for PDE10A, Compound 332], the IC50 was determined as 10000 nM.
On to `O=C(N[C@@H]1CCN(c2ccc(Cl)nn2)C1)c1nc(C2CC2)ccc1Nc1cncnc1` [Roche-Dataset for PDE10A, Compound 923], for which the IC50 was found to be 12 nM.
The figure for `O=C(NCCN1CCCC1=O)c1nc(C2CC2)cnc1Nc1cncnc1` [Roche-Dataset for PDE10A, Compound 779] is 2070 nM; for `CC(C)n1ccc(NC(=O)c2c(C(=O)N3CCC3)cnn2C)n1` [Roche-Dataset for PDE10A, Compound 1118] it is 1830 nM.
The figure for `Cc1cnc(C)n2nc(CCc3ncnn3C)nc12` [Roche-Dataset for PDE10A, Compound 1130] is 2420 nM; for `Cc1ncoc1C(=O)Nc1cc(-c2ccccn2)nn1C` [Roche-Dataset for PDE10A, Compound 979] it is 2670 nM; for `COCCn1ncc(NC(=O)c2nc(C3CC3)ccc2Nc2cncnc2)c1C(=O)N(C)C` [Roche-Dataset for PDE10A, Compound 944] it is 13 nM.
The figure for `Cn1ncc(C(=O)N2CCC2)c1C(=O)Nc1cn(-c2cccc(C(F)(F)F)n2)cn1` [Roche-Dataset for PDE10A, Compound 802] is 3190 nM; for `O=C(Nc1nnc(-c2ccccn2)o1)c1nc(C2CC2)ccc1Nc1cncnc1` [US8470820, 64] it is 2580 nM; for `Cn1cc(-c2ccccc2)nc1/C=C/c1ncc(Cl)nc1Cl` [Roche-Dataset for PDE10A, Compound 465] it is 824 nM.
In turn, `CN(C)c1nc2cc(NC(=O)c3c(C(=O)N4CCOCC4)cnn3C)ccn2n1` [Roche-Dataset for PDE10A, Compound 568] registered an IC50 of 39 nM.
The figure for `O=C(Nc1cnc(-c2ccccn2)s1)c1nc(C2CC2)ccc1Nc1cncnc1` is 2.26 nM; for `Cn1ncc(C(=O)N2CCC2)c1C(=O)Nc1nnc(-c2ccccn2)o1` [Roche-Dataset for PDE10A, Compound 1032] it is 10000 nM; for `CN(C)c1cc(C(=O)Nc2ccn3nc(-c4ccccc4)nc3c2)cc(Cl)n1` [Roche-Dataset for PDE10A, Compound 167] it is 131 nM.
With `O=C(NCC1(c2ccccc2)CCCCC1)c1nc(C2CC2)cnc1Nc1cncnc1` [Roche-Dataset for PDE10A, Compound 804] the figure was 728 nM; with `Cc1cc(-c2nc3cc(NC(=O)c4c(C(=O)N5CCC5)cnn4C)ccn3n2)ccn1` [Roche-Dataset for PDE10A, Compound 234], 1.91 nM.
Regarding `Cc1cncc(CCc2nc(N3CCCC3)nn2C)n1` [Roche-Dataset for PDE10A, Compound 989], 7900 nM corresponded to half-maximal inhibition (IC50).
`O=C(Nc1cccnn1)c1nc(C2CC2)cnc1Nc1cncnc1` [Roche-Dataset for PDE10A, Compound 1105] had a concentration for half-maximal inhibition (IC50) of 271 nM.
With `COC(=O)c1cc(Cl)c(C)n2nc(CCc3nc(N4CCCC4)nn3C)nc12` [Roche-Dataset for PDE10A, Compound 325] the figure was 432 nM; with `Cc1cc(C(=O)Nc2cc3[nH]c(-c4ccccc4)nc3cc2C(F)(F)F)n(C)n1` [Roche-Dataset for PDE10A, Compound 731], 10000 nM.
Turning to `Cc1cnc(C)n2nc(/C=C/c3nc(N4CCCC4)n(C)n3)nc12` [Roche-Dataset for PDE10A, Compound 443], the IC50 was 20 nM. This IC50 is about 500-fold lower than that of the compound before.
`Cc1cc(NC(=O)c2c(C(=O)N3CCC3)cnn2C)cc(N)n1` [Roche-Dataset for PDE10A, Compound 1077] returned an IC50 of 131 nM.
With `O=C(Nc1cc(-c2ccccn2)nn1CCc1ccccc1)c1nc(C2CC2)ccc1Nc1cncnc1` [US8470820, 17] the figure was 4.91 nM; with `O=C(Nc1ccn(CCCC(F)(F)F)n1)c1nc(C2CC2)ccc1Nc1cncnc1` [Roche-Dataset for PDE10A, Compound 485], 6.66 nM; with `Nc1ccc(C2CC2)nc1C(=O)Nc1cc2nc(-c3ccccc3)[nH]c2cc1C(=O)NC1COC1` [Roche-Dataset for PDE10A, Compound 243], 11 nM.
With `Cc1ncc(C)n2nc(CCc3nc(C4CCCC4)nn3C)nc12` [Roche-Dataset for PDE10A, Compound 956] the figure was 146 nM; with `O=C(Nc1cccc(N2CCCCC2=O)c1)c1nc(C2CC2)cnc1Nc1cncnc1` [Roche-Dataset for PDE10A, Compound 724], 46 nM.
The figure for `O=C(NCCO)c1ncccc1NC(=O)c1nc(C2CC2)cnc1Nc1cncnc1` [US8703768, 271] is 0.36 nM.
Compound `Cc1nc(C)n2nc(/C=C/c3nc(N4CCCC4)nn3C)nc2c1Cl` [Roche-Dataset for PDE10A, Compound 382] came in with a half-maximal inhibitory concentration (IC50) of 24 nM. This IC50 is about 67-fold higher than that of the compound before.
`O=C(NCc1cn(-c2ccccc2)cn1)c1nc(C2CC2)cnc1Nc1cncnc1` [Roche-Dataset for PDE10A, Compound 682] showed an IC50 of 53 nM.
The figure for `Cc1c(C(F)(F)F)nc2ccc(C#Cc3nc(N4CCCC4)n(C)n3)nn12` [3-Methyl-6-((1-methyl-5-(pyrrolidin-1-yl)-1H-1,2,4-triazol-3-yl)ethynyl)-2-(trifluoromethyl)imidazo[1,2-b]pyridazine] is 3.92 nM; for `Cc1cc(-n2nc(CCc3nc4c(C(F)(F)F)cc(Cl)c(C)n4n3)nc2N2CCCC2)ccn1` [Roche-Dataset for PDE10A, Compound 40] it is 9.83 nM.
As to `Cn1cc(-c2ccccc2)nc1/C=C/c1ccc2ccccc2n1` [Roche-Dataset for PDE10A, Compound 180], half-maximal inhibition (IC50) was put at 271 nM. Against the preceding compound, the IC50 is about 28-fold higher.
Take `Cc1nc2ccccc2nc1CCc1ncc(-c2ccccc2)[nH]1` [Roche-Dataset for PDE10A, Compound 254]: the concentration for half-maximal inhibition (IC50) amounted to 9.25 nM.
With `Cc1c(Cl)cc(Cl)c2nc(CCc3ccn(C)n3)nn12` [Roche-Dataset for PDE10A, Compound 980] the figure was 309 nM.
`O=C(Nc1ccc2[nH]c(-c3ccccc3)nc2c1)c1nc(C2CC2)ccc1Nc1cncnc1` [Roche-Dataset for PDE10A, Compound 423]: the concentration for half-maximal inhibition (IC50) is 0.24 nM.
Take `CNC(=O)c1cc2[nH]c(-c3ccccc3)nc2cc1NC(=O)c1oc(CO)nc1C` [Roche-Dataset for PDE10A, Compound 238]: the IC50 turned out to be 748 nM.
As to `Cc1nc2ccccc2nc1OCc1cccc(N2CCCC2)n1` [2-methyl-3-((6-(pyrrolidin-1-yl)pyridin-2-yl)methoxy)quinoxaline], half-maximal inhibition (IC50) required 38 nM.
Compound `Cc1cn2nc(CCc3nc(N4CCCC4)nn3C)nc2cn1` [Roche-Dataset for PDE10A, Compound 678] gave a half-inhibitory concentration (IC50) of 929 nM. Against the preceding compound, the IC50 is about 24-fold higher.
The figure for `Cc1ncc(C)n2nc(CCc3nc(N4CCN(C(c5ccccc5)c5ccccc5)C4=O)nn3C)nc12` [Roche-Dataset for PDE10A, Compound 1145] is 4770 nM; for `Cc1ncc(C)n2nc(CCc3nc(N4CCCOCC4)nn3C)nc12` [Roche-Dataset for PDE10A, Compound 984] it is 1270 nM.
With `O=C(Nc1ccn(C2CCC2)n1)c1nc(C2CC2)ccc1Nc1cncnc1` [Roche-Dataset for PDE10A, Compound 695] the figure was 21 nM.
With `Cn1cc(-c2ccccc2)nc1CCc1nc2ccccc2c(=O)[nH]1` [Roche-Dataset for PDE10A, Compound 170] the figure was 60 nM; with `Cn1cc(-c2ccccc2)nc1COc1nc(N2CCOCC2)c2ccccc2n1` [Roche-Dataset for PDE10A, Compound 240], 11 nM; with `Cn1ncc(C(=O)N2CCC2)c1C(=O)Nc1n[nH]cc1C#N` [Roche-Dataset for PDE10A, Compound 1112], 325 nM.
`Cc1c(NC(=O)c2c(C(=O)N3CCC3)cnn2C)ccn2nc(-c3ccccc3)nc12` [Roche-Dataset for PDE10A, Compound 341]: the IC50 was 16 nM.
With `CC(=O)c1cccc(NC(=O)c2nc(C3CC3)cnc2Nc2cncnc2)c1` [Roche-Dataset for PDE10A, Compound 957] the figure was 19 nM; with `O=C(c1nc(C2CC2)cnc1Nc1cncnc1)N1CCN(c2ccccc2F)CC1` [Roche-Dataset for PDE10A, Compound 975], 6170 nM.

The term IC50 denotes the concentration needed to halve the response being measured. A high value points to lower potency.
